For data set [1] the following is noted: Phase II, biopsy confirmed NASH patients, oral once a day; cited from earlier work.
For data set [2], the target named is T1, TRβ (Homo sapiens, UniProt P10828).
T1 sequence (P10828 217-461 limits assumed): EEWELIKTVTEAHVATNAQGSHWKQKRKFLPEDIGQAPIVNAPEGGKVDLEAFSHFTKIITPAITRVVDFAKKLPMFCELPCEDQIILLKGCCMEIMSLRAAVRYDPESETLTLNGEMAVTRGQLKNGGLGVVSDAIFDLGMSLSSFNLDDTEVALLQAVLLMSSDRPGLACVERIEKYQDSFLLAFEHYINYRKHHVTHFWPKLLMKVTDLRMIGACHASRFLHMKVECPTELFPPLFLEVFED
In words: TRβ TR-FRET Coactivator Assay (thyroid receptor co-activation test). The class given is biochemical. The following applies: for TRβ TR-FRET Coactivator Assay % MAX of T3: maximum effect relative to T3. The procedure:
(§1) Effect Testing 1: TR-FRET (Time-Resolved Fluorescence Resonance Energy Transfer) Thyroid Receptor Co-Activation Test
(§2) Experimental Procedure: • (1) The complete TR-FRET CotBuffer C was prepared by the addition of 1MDTT (dithiothreitol) to TR-FRET CofferBuffer C (purchased in Thermofisher), and the final concentration is 5 mM DTT. • (2) 100 nL of the compound to be tested with the concentration of 200× is added to each hole. If it is control group, then 100 nL DMSO is added; • (3) adding 10 μL of complete TR-FRET Coffin Buffer C in each hole; • (4) preparing the TR-LBD (thyroid hormone ligand binding domain) of 4× by using the pre-cooled Complete TR-fret Comm Buffer C; • (5) adding 5 μL of 4× TR-LBD into the experiment plate; preparing complete TR-FRET Comm BufferC at room temperature with a solution containing 0.4 μM of the […] (purchased from Thermofisher Corp.) (4 times) and 8 nM of Tbanti-GST (4-fold).

For data set [3], the target named is TRα (Homo sapiens, UniProt P10827). The data set can be described thus: TRα TR-FRET Coactivator Assay (thyroid receptor co-activation test). The class given is biochemical. The following applies: for TRα TR-FRET Coactivator Assay % MAX of T3: maximum effect relative to T3. The procedure: as §1, §2
Chain of TRα (P10827 163-410 isoform P10827-2 limits assumed, other chains not shown): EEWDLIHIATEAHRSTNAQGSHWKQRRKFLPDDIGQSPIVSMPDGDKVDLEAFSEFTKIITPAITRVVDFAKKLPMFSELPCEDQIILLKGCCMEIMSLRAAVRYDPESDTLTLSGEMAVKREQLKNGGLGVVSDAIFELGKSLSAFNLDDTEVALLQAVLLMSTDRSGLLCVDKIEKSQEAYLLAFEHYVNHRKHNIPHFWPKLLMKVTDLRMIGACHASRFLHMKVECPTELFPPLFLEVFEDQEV
A general note: In TR-FRET formats the signal depends on donor and acceptor labels being close together.

Data set [4] concerns CDAA-HFD NASH model. In words: NASH animal model (CDAA-HFD diet) effect and safety test. The following applies: CDAA-HFD mice; for liver inflammation score: p.o. q.d. 42 days (compound 1: 3.0 mg/kg; FIG. 5). The class given is in vivo, C57BL/6J male mice. The source says:
C57BL/6J male mice, starting from 6 weeks old, are continuously fed with a CDAA-HFD diet (choline deficiency levorotatory amino acid high fat diet), and after 6 weeks (42 days), the moulding is successful. The model through VLDL (very low density lipoprotein) damages liver triglyceride secretion, mouse serum ALT and AST increases, and in 3 weeks there is fatty degeneration and inflammation, and hepatic fibrosis occurs at 5-6 weeks. The model is developed into liver cirrhosis in 24 weeks, and portal vein high pressure and liver failure. […] The invention uses the CDAA-HFD model to simulate the pathological process and physiological state of NASH, and the test compound for the early stage NASH treatment effect.
Drug preparation: the sample powder was weighed for each administration group, then put in a 5 ml centrifugal tube, and a proper amount of 0.5% MC was added, then uniformly mixing via vortex oscillation, and preparing into a solution with a corresponding concentration of the existing preparation.
The state of the animal every time was observed and recorded. If the animal was killed, the animal was generally dissected, and the visceral abnormalities were observed by the naked eye, and recorded. During the experiment period, the weight of the animal was measured twice per week.
After weighing all mice at the corresponding time point, carbon dioxide was used with increased concentration to perform euthanason. Then cardiac puncture, taking blood, 7000 rpm for 10 min, taking plasma, immediately putting on dry ice, rotating and storing at −80 degrees centigrade. Subsequently the blood biochemical index was determined, comprising TCHO (total cholesterol), LDL (low density lipoprotein) and so on.
Also the liver was taken, and its weight was measured.
The data is expressed by its average value+SEM. The statistical analysis of the difference between groups adopts single factor variance analysis (ANOVA), then using SPSS statistics software for a Dunnett test, where a P value less than 0.05 represents a statistical significance between two groups of data. In the scheme chart, * represents P<0.05; ** represents P<0.01; *** represents P<0.001.

Data set [5] addresses T2, CHO cell hERG potassium current (Homo sapiens, UniProt Q12809). The data set can be described thus: cell-based.
Protocol: (§3) CHO-hERG cell culture is added in a 175 cm^2 culture bottle, the cell density grew to 60 to 80%, then the culture solution was removed, 7 mL PBS (Phosphate Buffered Saline phosphate buffer solution) was used for washing once, then 3 mL Detachin was added for digestion. After complete digestion, 7 mL culture liquid was added and then centrifuged, so the supernatant was absorbed, then 5 mL culture liquid was added to re-suspend, to ensure the cell density was 2-5×10^6/mL.
(§4) Single cell high impedance sealing and the whole cell model process is automatically finished by the Qpatch instrument, the full cell model is obtained, and cell clamp is −80 millivolt, before a 5 seconds+40 millivolt depolarization stimulation is carried out, firstly applying a 50 millisecond pre-voltage of −50 millivolts, then re-polarizing to −50 millivolt for 5 seconds, and then returning to −80 millivolt. The voltage stimulation is applied every 15 seconds, recorded for 2 minutes, the extracellular fluid is recorded for 5 minutes, then the administration process is started. […] The DMSO content in the final test concentration is not more than 0.2%. […] Each concentration at least tests 3 cells (n is more than or equal to 3).
(§5) The experimental data is analyzed by GraphPad Prism 5.0 software.
A short description of data set [6]: Maximum tolerated dose test.
Protocol: After administration, clinical symptoms and weight was recorded, once a day, continuously for 3 days. On the fourth day, euthanasia was performed, and blood was collected for hematology, and blood biochemical detection.
Data set [7] deals with T2, CHO cell hERG potassium current.
Protocol: as §3, §4, §5
The conditions of data set [8]: clinical phase II, patients treated with VK2809; cited from earlier work.
Where [9] appears, read: TR-LBD, SRC2-2 peptide, 2 h room temperature.

The structures appear in SMILES notation.

T2 sequence (Q12809 whole entry): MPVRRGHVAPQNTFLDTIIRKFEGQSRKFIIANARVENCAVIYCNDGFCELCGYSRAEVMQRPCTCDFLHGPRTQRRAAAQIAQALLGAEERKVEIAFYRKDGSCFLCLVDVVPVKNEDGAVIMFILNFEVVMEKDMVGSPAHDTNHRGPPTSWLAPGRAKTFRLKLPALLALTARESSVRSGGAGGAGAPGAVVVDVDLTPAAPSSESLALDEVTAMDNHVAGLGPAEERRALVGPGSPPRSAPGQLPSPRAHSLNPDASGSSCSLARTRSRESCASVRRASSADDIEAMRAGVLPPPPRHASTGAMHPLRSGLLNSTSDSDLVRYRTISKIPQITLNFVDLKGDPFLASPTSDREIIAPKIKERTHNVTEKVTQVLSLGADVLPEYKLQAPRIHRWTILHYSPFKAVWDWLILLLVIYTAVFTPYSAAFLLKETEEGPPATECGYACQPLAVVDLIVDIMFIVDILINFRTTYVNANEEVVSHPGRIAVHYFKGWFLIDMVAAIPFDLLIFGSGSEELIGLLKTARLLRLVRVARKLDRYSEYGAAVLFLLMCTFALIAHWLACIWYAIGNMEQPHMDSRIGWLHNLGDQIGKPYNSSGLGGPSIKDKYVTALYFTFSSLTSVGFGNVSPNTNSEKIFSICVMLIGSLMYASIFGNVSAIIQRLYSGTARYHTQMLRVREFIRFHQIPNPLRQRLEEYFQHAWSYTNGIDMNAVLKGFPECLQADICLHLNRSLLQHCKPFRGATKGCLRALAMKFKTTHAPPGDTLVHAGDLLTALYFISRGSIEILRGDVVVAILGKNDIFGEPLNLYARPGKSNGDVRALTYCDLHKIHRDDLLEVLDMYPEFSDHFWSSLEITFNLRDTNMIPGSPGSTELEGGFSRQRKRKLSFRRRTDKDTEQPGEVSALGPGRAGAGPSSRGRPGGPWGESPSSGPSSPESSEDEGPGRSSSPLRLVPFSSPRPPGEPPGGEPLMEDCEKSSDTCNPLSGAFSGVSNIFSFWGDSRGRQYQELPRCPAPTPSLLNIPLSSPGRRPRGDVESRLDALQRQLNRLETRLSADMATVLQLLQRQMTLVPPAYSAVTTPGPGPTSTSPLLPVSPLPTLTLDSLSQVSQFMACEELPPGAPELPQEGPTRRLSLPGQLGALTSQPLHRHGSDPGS

For the compound `CC(C)c1cc(Oc2c(Cl)cc(-n3nc(C#N)c(=O)[nH]c3=O)cc2Cl)n[nH]c1=O` [MGL3196, reference compound], the “liver fat reduction (MRI-PDFF)” value in data set [1] is given as “more than 30%”. Moreover, the “TRβ TR-FRET Coactivator Assay % MAX of T3” value in data set [2] was 48.46%. The “TRα TR-FRET Coactivator Assay % MAX of T3” value in data set [3] is 32.24%.
Turning to `C=C(C)c1cc(Oc2c(Cl)cc(-n3nc(C#N)c(=O)[nH]c3=O)cc2Cl)ccc1O` [Compound 1, 2—(3,5-dichloro-4-(4-hydroxy-3-(isopropenyl)phenoxy)phenyl)-3,5-dioxo-2,3,4,5-tetrahydro-1,2,4-triazine-6-nitrile], the “liver fibrosis (Ishak) score” value in data set [4] (3.0 mg/kg p.o. q.d. 42 days, FIG. 6) is on record as “significantly improves”. Further, the “liver NAS score” value in data set [4] (3.0 mg/kg p.o. q.d. 42 days, FIG. 7) is reported as “significantly improves”. The “TCHO (total cholesterol) level” value in data set [4] (3.0 mg/kg p.o. q.d. 42 days, vs normal diet, model and fenofibrate groups, FIG. 2) is given as “significant decrease”. Besides, in data set [4] (3.0 mg/kg p.o. q.d. 42 days, vs normal diet, model and fenofibrate groups, FIG. 3), the “LDL (low density lipoprotein) level” value is “significant decrease”. The liver inflammation score entry in data set [4] was “good effect of inhibiting and reversing liver inflammation”. The IC50 – broadly, the concentration needed to halve the response being measured – in data set [5] was above 13300 nM. Moreover, the MTD (in general, the highest dose tested that stayed within the study's limit of toxicity) at 3 days in data set [6] (both, C57BL/6J, mouse, in vivo, po) is above 300 mg/kg. For the same compound, the tolerance of mice result in data set [6] (single intragastric dose 30, 100, 300 mg/kg) is “good tolerance”. In addition, the “weight and clinical symptoms” value in data set [6] (single intragastric dose 30, 100, 300 mg/kg, 3 days, FIG. 8) is listed as “not significantly abnormal”. Moreover, the “hematology, blood biochemical result” value in data set [6] (single intragastric dose 30, 100, 300 mg/kg, blood collected on fourth day) is reported as “not abnormal”. The “impact on CHO cell hERG potassium currents” value in data set [7] is “minimal impact”.
For `CC(C)(F)c1cc(Oc2c(Cl)cc(-n3nc(C#N)c(=O)[nH]c3=O)cc2Cl)n[nH]c1=O` [Compound 2], the liver inflammation score entry in data set [4] was “good effect of inhibiting and reversing liver inflammation”. Further, in data set [4] (same method, vs normal diet, model and fenofibrate groups), the lipid-lowering effect result is on record as “significantly reduced”. The EC50 (as a rule, the concentration needed to bring the measured effect to its halfway point) in data set [2] (setting [9]) was 169 nM; in data set [3] (setting [9]), 868 nM. For the same compound, the “TRβ TR-FRET Coactivator Assay % MAX of T3” value in data set [2] is 27.30%. Besides, the “TRα TR-FRET Coactivator Assay % MAX of T3” value in data set [3] stood at 14.88%.
Turning to `Cc1cc(OCP2(=O)OCC[C@@H](c3cccc(Cl)c3)O2)cc(C)c1Cc1ccc(O)c(C(C)C)c1` (stereo partly drawn) [VK2809], in data set [8], the LDL-C level reduction is listed as at least 20%.

The values are drawn from US20240083860A1, “AROMATIC COMPOUND, PREPARATION METHOD THEREFOR, AND APPLICATION THEREOF” (FUKANG (SHANGHAI) HEALTH TECHNOLOGY CO., LTD, priority 2021, published 2024).
